Patent US9174948B2, “Desferrithiocin polyether analogues” (University of Florida Research Foundation, Inc., priority 2007, dated 2015)
Where two headings read alike, the source gives them in different places.

Tests used:
[1] = system: Iron-Overloaded Cebus apella Primates; settings: Cebus apella, po, 150 μmol/kg, historical data, cited from earlier work
[2] = system: Non-Iron-Overloaded Rodents; settings: rats, po, 300 μmol/kg, historical data, cited from earlier work
[3] = system: Non-Iron-Overloaded Rodents; assay: Chelator-induced iron clearance in non-iron-overloaded, bile duct-cannulated rats; type: in vivo, rat (male Sprague-Dawley); settings: po, 300 μmol/kg
Text: Chelator-Induced Iron Clearance in Non-Iron-Overloaded Rodents. […] J. Med. Chem. 2006, 49, 2772-2783]. Recall that iron-clearing efficiency (ICE) is defined as (net iron excretion)/(total iron-binding capacity of the chelator), expressed as a percent. The relative ICE values of compounds 1 and 2 were in keeping with their log Papp values: the more lipophilic, the larger log Papp, the more efficient the chelator. […] However, the ICE trend was in keeping with the biliary ferrokinetics (FIG. 3) and liver concentration of the chelators, for example, 3>1 (FIG. 4).
Cannulation of Bile Duct in Non-Iron-Overloaded Rats has been described previously. […]. […] The urine sample(s) was taken at 24 h intervals. Sample collection and handling are as previously described [Bergeron, R. J., Streiff, R. R., Creary, E. A., Daniels, R. D., Jr., King, W., Luchetta, G., Wiegand, J., Moerker, T. and Peter, H. H. A Comparative Study of the Iron-Clearing Properties of Desferrithiocin Analogues with Desferrioxamine B in a Cebus Monkey Model. Blood 1993, 81, 2166-2173; Bergeron, R. J., Streiff, R. R., Wiegand, J., Vinson, J. R. T., Luchetta, G., Evans, K. M., Peter, H. and Jenny, H.-B. A Comparative Evaluation of Iron Clearance Models. Ann. N.Y. Acad. Sci. 1990, 612, 378-393].
(§1) In the iron-clearing experiments, the rats were given a single 300 μmol/kg dose of drugs 1-9 orally (po).
(§2) J. Med. Chem. 1999, 42, 2432-2440].

[4] = system: Iron-Overloaded Cebus apella Primates; assay: Chelator-induced iron clearance in iron-overloaded Cebus apella primates; type: in vivo; settings: po, 75 μmol/kg
Text: Chelator-Induced Iron Clearance in Iron-Overloaded Cebus apella Primates. The iron-clearance data for all three sets of ligands are presented (Table 2). […] J. Med. Chem. 2003, 46, 1470-1477]>1 (16.8±7.2%) [Bergeron, R. J., Wiegand, J., McManis, J. S., McCosar, B. H., Weimar, W. R., Brittenham, G. M. and Smith, R. E. Effects of C-4 Stereochemistry and C-4′ Hydroxylation on the Iron Clearing Efficiency and Toxicity of Desferrithiocin Analogues. J. Med. Chem. 1999, 42, 2432-2440], the increase is not significant. Although (S)-4′-(HO)-DADFT-PE (3) is the least lipophilic chelator in the 1-3 series, it is just as efficient (ICE, 25.4±7.4%) [Bergeron, R. J., Wiegand, J., McManis, J. S., Vinson, J. R. T., Yao, H., Bharti, N. and Rocca, J. R. (S)-4,5-Dihydro-2-(2-hydroxy-4-hydroxyphenyl)-4-methyl-4-thiazolecarboxylic Acid Polyethers: A Solution to Nephrotoxicity.
The monkeys (3.5-4 kg) were iron overloaded with intravenous iron dextran as specified in earlier publications to provide about 500 mg of iron per kg of body weight [Bergeron, R. J., Streiff, R. R., Wiegand, J., Luchetta, G., Creary, E. A. and Peter, H. H. A Comparison of the Iron-Clearing Properties of 1,2-Dimethyl-3-hydroxypyrid-4-one, 1,2-Diethyl-3-hydroxypyrid-4-one, and Deferoxamine. Blood 1992, 79, 1882-1890]; the serum transferrin iron saturation rose to between 70 and 80%. At least 20 half-lives, 60 d [Wood, J. K., Milner, P. F. and Pathak, U. N. The Metabolism of Iron-dextran Given as a Total-dose Infusion to Iron Deficient Jamaican Subjects. Br. J. Haematol. 1968, 14, 119-129], elapsed before any of the animals were used in experiments evaluating iron-chelating agents.
Fecal and urine samples were collected at 24-h intervals and processed as described previously [Bergeron, R. J., Streiff, R. R., Creary, E. A., Daniels, R. D., Jr., King, W., Luchetta, G., Wiegand, J., Moerker, T. and Peter, H. H. A Comparative Study of the Iron-Clearing Properties of Desferrithiocin Analogues with Desferrioxamine B in a Cebus Monkey Model. Blood 1993, 81, 2166-2173; Bergeron, R. J., Streiff, R. R., Wiegand, J., Vinson, J. R. T., Luchetta, G., Evans, K. M., Peter, H. and Jenny, H.-B. A Comparative Evaluation of Iron Clearance Models. Ann. N.Y. Acad. Sci. 1990, 612, 378-393; Bergeron, R. J., Wiegand, J. and Brittenham, G. M. HBED: A Potential Alternative to Deferoxamine for Iron-Chelating Therapy. Blood 1998, 91, 1446-1452]. Briefly, the collections began 4 d prior to the administration of the test drug and continued for an additional 5 d after the drug was given. Iron concentrations were determined by flame atomic absorption spectroscopy as presented in other publications [Bergeron, R. J., Streiff, R. R., Wiegand, J., Vinson, J. R. T., Luchetta, G., Evans, K. M., Peter, H. and Jenny, H.-B. A Comparative Evaluation of Iron Clearance Models. Ann. N.Y. Acad. Sci. 1990, 612, 378-393; Bergeron, R. J., Wiegand, J., Wollenweber, M., McManis, J. S., Algee, S. E. and Ratliff-Thompson, K. Synthesis and Biological Evaluation of Naphthyldesferrithiocin Iron Chelators. J. Med. Chem. 1996, 39, 1575-1581].
as §1, §2

Row | Structure (SMILES) | Iron-Clearing Efficiency (%) [1] [%] | Iron-Clearing Efficiency (%) [2] [%] | relative percentages of the iron excreted in the stool and urine [1] | other results
1 | C[C@]1(C(=O)O)CSC(c2cc(O)ccc2O)=N1 [Compound 4, (S)-2-(2,5-dihydroxyphenyl)-4,5-dihydro-4-methyl-4-thiazolecarboxylic acid] | 12.6±3.0 | 1.0±0.9 | – | –
2 | COc1ccc(O)c(C2=N[C@@](C)(C(=O)O)CS2)c1 [Compound 5, (S)-4,5-dihydro-2-(2-hydroxy-5-methoxyphenyl)-4-methyl-4-thiazolecarboxylic acid] | 18.9±2.3 | 6.3±1.2 | – | –
3 | COc1cccc(C2=N[C@@](C)(C(=O)O)CS2)c1O [Compound 8] | 22.5±7.1 | – | – | Iron-Clearing Efficiency (%) ([3]; 48 h sample collection period): 12.4±3.5%
4 | C[C@]1(C(=O)O)CSC(c2ccc(O)cc2O)=N1 [drawing 3] | – | 1.1 ± 0.8 | – | relative percentages of the iron excreted in the bile and urine [2]: 100/0
5 | COc1ccc(C2=N[C@@](C)(C(=O)O)CS2)c(O)c1 [drawing 4] | – | 6.6 ± 2.8 | – | relative percentages of the iron excreted in the bile and urine [2]: 98/2
6 | COCCOCCOCCOc1ccc(C2=N[C@@](C)(C(=O)O)CS2)c(O)c1 [drawing 5] | – | 5.5 ± 1.9 | – | relative percentages of the iron excreted in the bile and urine [2]: 90/10
7 | C[C@]1(C(=O)O)CSC(c2cc(O)ccc2O)=N1 [drawing 6] | – | 1.0 ± 0.9 | – | relative percentages of the iron excreted in the bile and urine [2]: 99/1
8 | COc1ccc(O)c(C2=N[C@@](C)(C(=O)O)CS2)c1 [drawing 7] | – | 6.3 ± 1.2 | – | relative percentages of the iron excreted in the bile and urine [2]: 95/5
9 | COCCOCCOCCOc1ccc(O)c(C2=N[C@@](C)(C(=O)O)CS2)c1 [drawing 8] | – | – | – | Iron-Clearing Efficiency (%) [3]: 8.0 ± 1.8%; relative percentages of the iron excreted in the bile and urine [3]: 98/2
10 | C[C@]1(C(=O)O)CSC(c2cccc(O)c2O)=N1 [drawing 9] | – | – | – | Iron-Clearing Efficiency (%) [3]: 4.6 ± 0.9%; relative percentages of the iron excreted in the bile and urine [3]: 98/2
11 | COc1cccc(C2=N[C@@](C)(C(=O)O)CS2)c1O [drawing 10] | – | – | – | Iron-Clearing Efficiency (%) ([3]; 48 h sample collection period): 12.4 ± 3.5%; relative percentages of the iron excreted in the bile and urine ([3]; 48 h sample collection period): 99/1
12 | COCCOCCOCCOc1cccc(C2=N[C@@](C)(C(=O)O)CS2)c1O [drawing 11] | – | – | – | Iron-Clearing Efficiency (%) ([3]; 48 h sample collection period): 10.6 ± 4.4%; relative percentages of the iron excreted in the bile and urine ([3]; 48 h sample collection period): 95/5
13 | C[C@]1(C(=O)O)CSC(c2ccc(O)cc2O)=N1 [drawing 12] | 16.8 ± 7.2 | – | 88/12 | –
14 | COc1ccc(C2=N[C@@](C)(C(=O)O)CS2)c(O)c1 [drawing 13] | 24.4 ± 10.8 | – | 91/9 | –
15 | COCCOCCOCCOc1ccc(C2=N[C@@](C)(C(=O)O)CS2)c(O)c1 [drawing 14] | 25.4 ± 7.4 | – | 96/4 | –
16 | C[C@]1(C(=O)O)CSC(c2cc(O)ccc2O)=N1 [drawing 15] | 12.6 ± 3.0 | – | 88/12 | –
17 | COc1ccc(O)c(C2=N[C@@](C)(C(=O)O)CS2)c1 [drawing 16] | 18.9 ± 2.3 | – | 94/6 | –
18 | COCCOCCOCCOc1ccc(O)c(C2=N[C@@](C)(C(=O)O)CS2)c1 [drawing 17] | – | – | – | Iron-Clearing Efficiency (%) [4]: 8.1 ± 2.8%; relative percentages of the iron excreted in the stool and urine [4]: 56/44
19 | C[C@]1(C(=O)O)CSC(c2cccc(O)c2O)=N1 [drawing 18] | 23.1 ± 5.9 | – | 83/17 | –
20 | COc1cccc(C2=N[C@@](C)(C(=O)O)CS2)c1O [drawing 19] | 22.5 ± 7.1 | – | 91/9 | –
21 | COCCOCCOCCOc1cccc(C2=N[C@@](C)(C(=O)O)CS2)c1O [drawing 20] | – | – | – | Iron-Clearing Efficiency (%) [4]: 24.5 ± 7.6%; relative percentages of the iron excreted in the stool and urine [4]: 72/28
